Test results taken from PMC6749586, “Design, Synthesis, and Anticancer Effect Studies of Iridium(III) Polypyridyl Complexes against SGC-7901 Cells” (Molecules, 2019).

Legend:
A549 cells = assay: MTT cytotoxicity assay, A549; format: cell-based, human; settings: 48 h, read-out: IC50 toward A549
Text: (§1) The lung carcinoma cell line A549, the cervical cancer cell line HeLa, the esophageal cancer cell line Eca-109, and the human hepatocellular carcinoma cell line BEL-7402 were purchased from the cell bank of the Cell Institute of Sinica Academia Shanghai (Shanghai, China). The gastric adenocarcinoma cell line SGC-7901, the hepatocellular carcinoma cell line HepG2, and the mouse embryonic fibroblast cell line NIH 3T3 were obtained from the Experimental Animal Center of Sun Yat-Sen University (Guangzhou, China). The BEL-7402 and SGC-7901 cell lines were cultured in Roswell Park Memorial Institute Medium (RPMI-1640); and A549, Eca-109, HepG2, and NIH 3T3 cells were grown in Dulbecco’s Modified Eagle’s Medium (DMEM), including 10% fetal bovine serum (FBS), 100 units mL^−1 penicillin/streptomycin mixture, and 2.0 g/L of NaHCO3. Cell passage experiments were performed with trypsin every 2 days to maintain exponential growth. All cells were cultured until they reached logarithmic growth phase, unless specifically noted.
(§2) Cell cytotoxicity following treatment with the iridium(III) complexes was detected by MTT assay. The cells were seeded into 96-well micro-assay culture plates (1 × 10^4 cells per well) and grown overnight in a 5% CO2 incubator at 37 °C. Then, the cell lines were treated with gradient concentrations of the complexes 1–3. After treatment for 48 h, MTT solution (5 mg mL^−1, […]) dissolved in phosphate buffer was added to each well and the cells were further cultured for 4 h. Upon completion of incubation, the solvent was removed and 100 µL/well of buffer containing dimethylformamide (50%) and sodium dodecyl sulfate (20%) was added to dissolve the produced formazan. The absorbance of each well was measured with a microplate reader at a wavelength of 490 nm. The IC50 values were determined from the plots of viability versus concentration used to treat the cells. Three independent experiments were performed to obtain the mean values.

HeLa cells = assay: MTT cytotoxicity assay, HeLa; format: cell-based, human; settings: 48 h, read-out: IC50 toward HeLa
Text: as §1, §2

HepG2 cells = assay: MTT cytotoxicity assay, HepG2; format: cell-based, human; settings: 48 h, read-out: IC50 toward HepG2
Text: as §1, §2

NIH 3T3 cells = assay: MTT cytotoxicity assay, normal NIH 3T3; format: cell-based, mouse; settings: 48 h, read-out: IC50 toward NIH 3T3
Text: as §1, §2

SGC-7901 cells [1] = assay: Mitochondrial membrane potential assay with JC-1; format: cell-based, human; settings: 24 h; for Ratio of red/green JC-1 fluorescence intensity (R), complex + NAC: 4.0 µM 1, 15.0 µM 2, 15.0 µM 3, in the presence of NAC; for Ratio of red/green JC-1 fluorescence intensity (R): substance alone: 4.0 µM 1, 15.0 µM 2, 15.0 µM 3, CCCP or NAC, control 12.03
Procedure: The SGC-7901 cells were seeded into a 12-well plate at a density of 1.5 × 10^5 cells per well and incubated to attach at 37 °C in 5% CO2. Overnight, the cells were treated with complexes 1–3 for 24 h. CCCP was used as a positive control. Then, the cells were incubated with JC-1 for 30 min at room temperature, after which the remaining dye was washed away with PBS. The samples were then observed under the ImageXpress Micro XLS system and flow cytometry was employed to quantify the fluorescence intensity.

SGC-7901 cells [2] = assay: ATP quantification assay (luciferin-luciferase); format: cell-based, human; settings: 4.0 µM 1, 15.0 µM 2, 15.0 µM 3, 24 h; control 951.46 nM
Procedure: Approximately 2.4 × 10^6 cells were taken, evenly planted in a 6-well plate, and incubated overnight in an incubator at 37 °C. On the next day, the cells were exposed to different concentrations of compounds for 24 h in triplicate. Following exposure, 200 μL of cell lysis buffer was added to each well of the cell plate and lysed on ice. To measure ATP, 20 μL of the lysed cell suspension was added to 100 μL of a luciferin–luciferase reagent. Light emission was measured by a luminometer. ATP levels were determined using a standard curve.

SGC-7901 cells [3] = assay: Cell cycle assay (PI, flow cytometry); format: cell-based, human; settings: for Percentage in the cells, G0/G1 phase / Phase of cell cycle arrest / Percentage in the cells, G2/M phase / Percentage in the cells, S phase: 4.0 µM 1, 15.0 µM 2, 15.0 µM 3, 24 h; for Percentage in the cells, G2/M phase: control 14.92%; for Percentage in the cells, S phase: control 37.46%
Procedure: Then, each sample was washed twice with cold PBS, re-suspended in 190 μL of PBS buffer containing 4 μL of PI (1 mg/mL), 4 μL of RnaseA (10 mg/mL) and 0.2 μL of Tritonx-100, and stained in the dark for 30 min. Finally, the cells were analyzed by flow cytometry

SGC-7901 cells [4] = assay: Colony-forming assay; format: cell-based, human; settings: 4.0 µM 1, 15.0 µM 2, 15.0 µM 3, 8 days
Procedure: The SGC-7901 cells were seeded at a cell density of 500 cells per well in a 6-well plate. After 24 h, an equal amount of solvent or iridium complexes was added into the medium for another 24 h. Then, the medium containing the tested complexes was removed and replaced with fresh medium. The number of the colonies was counted on the 8th day after seeding and then fixed with paraformaldehyde for 20 min. The colonies were photographed under an inverted microscope after staining with 0.1% (w/v) crystal violet for 20 min. Each experiment was carried out in triplicate.

SGC-7901 cells [5] = assay: Intracellular Ca2+ level with Fluo-3AM; format: cell-based, human; settings: 4.0 µM 1, 15.0 µM 2, 15.0 µM 3, 24 h; controls weak green fluorescence
Procedure: SGC-7901 cells in the logarithmic growth phase were seeded in 12-well microassay culture plates (1.5 × 10^5 cells per well), incubated overnight, and then treated with different concentrations of the tested complexes (4.0 µM 1, 15.0 μM 2, and 15.0 μM 3) for 24 h. The control wells were prepared by the addition of solvent (10 μL PBS buffer). The concentration of Ca^2+ was detected using the Ca^2+-sensitive fluorescent probe Fluo-3AM. Upon completion of incubation, the medium was removed and the wells were washed twice with PBS buffer, following which the cells were dyed with Fluo-3AM for 30 min. After dyeing, the cells were washed again and stained with Hoechst 33258 (10 μg mL^−1) for 30 min. The remaining dye was removed and the cells were observed under an ImageXpress Micro XLS system.

| Compound | IC50 (A549 cells) | IC50 (HeLa cells) | IC50 (HepG2 cells) | IC50 (NIH 3T3 cells) | Ratio of red/green JC-1 fluorescence intensity (R), complex + NAC (SGC-7901 cells [1]) | Ratio of red/green JC-1 fluorescence intensity (R) (SGC-7901 cells [1]) | Intracellular ATP amount (SGC-7901 cells [2]) | Percentage in the cells, G0/G1 phase (SGC-7901 cells [3]) | Phase of cell cycle arrest (SGC-7901 cells [3]) | Percentage in the cells, G2/M phase (SGC-7901 cells [3]) | Percentage in the cells, S phase (SGC-7901 cells [3]) | Inhibition of colony formation (SGC-7901 cells [4]) | Intracellular Ca2+ level, Fluo-3AM fluorescence (SGC-7901 cells [5]) | Increase in the cells at the G0/G1 phase versus control (SGC-7901 cells [3]; 15.0 µM, 24 h) |
| --- | --- | --- | --- | --- | --- | --- | --- | --- | --- | --- | --- | --- | --- | --- |
| F[P-](F)(F)(F)(F)F.O=[N+]([O-])c1cc2ccc[n+]3c2c2c1ccc[n+]2[Ir-5]312([c]3ccccc3-c3cccc[n+]31)[c]1ccccc1-c1cccc[n+]12 [Complex 1, [Ir(Hppy)2(NP)]PF6] | 14.3 ± 2.4 µM | 16.3 ± 0.9 µM | 30.9 ± 0.7 µM | 14.6 ± 1.3 µM | 1.86 | 0.43 | 913.91 nM | 50.28% | inhibited cell proliferation at the S phase | 6.70% | 43.02% | significant inhibition of colony formation | brilliant green fluorescence | – |
| F[P-](F)(F)(F)(F)F.Nc1c([N+](=O)[O-])c2cccnc2c2ncccc12.[Ir+3].[c-]1ccccc1-c1ccccn1.[c-]1ccccc1-c1ccccn1 [Complex 2, [Ir(Hppy)2(NAP)]PF6] | 80.6 ± 1.4 µM | 52.6 ± 1.4 µM | 99 ± 14.7 µM | 23 ± 1.5 µM | 17.99 | 7.12 | 880.48 nM | 56.65% | cell cycle arrest at G0/G1 | 5.49% | 37.86% | significant inhibition of colony formation | brilliant green fluorescence | 9.03% |
| F[P-](F)(F)(F)(F)F.Nc1c(N)c2cccnc2c2ncccc12.[Ir+3].[c-]1ccccc1-c1ccccn1.[c-]1ccccc1-c1ccccn1 [Complex 3, [Ir(Hppy)2(DAP)]PF6] | > 100 µM | 59.7 ± 6.8 µM | 95 ± 9.1 µM | > 100 µM | – | 1.49 | 945.02 nM | 44.79% | inhibited cell proliferation at the S phase | 10.50% | 44.71% | significant inhibition of colony formation | brilliant green fluorescence | – |
